Measurements published in PMC10975980, “Open Meter Duo: Low-Cost Instrument for Fluorimetric Determination of Cholinesterase Activity” (Sensors (Basel, Switzerland), 2024).

Target: T1, acetylcholinesterase from Electrophorus electricus (AChE, EC 3.1.1.7, type V-S) (Electrophorus electricus, UniProt O42275)
T1 construct: commercial native electric eel enzyme, type V-S (Merck), crude enzyme protein dissolved in PBS with BSA as stabilizer
Test: fluorimetric indoxyl acetate assay (Open Meter Duo)
Assay type: biochemical
Description: fluorimetric indoxyl acetate assay (Open Meter Duo) on acetylcholinesterase from Electrophorus electricus (AChE, EC 3.1.1.7, type V-S)

T1 sequence (O42275 24-633): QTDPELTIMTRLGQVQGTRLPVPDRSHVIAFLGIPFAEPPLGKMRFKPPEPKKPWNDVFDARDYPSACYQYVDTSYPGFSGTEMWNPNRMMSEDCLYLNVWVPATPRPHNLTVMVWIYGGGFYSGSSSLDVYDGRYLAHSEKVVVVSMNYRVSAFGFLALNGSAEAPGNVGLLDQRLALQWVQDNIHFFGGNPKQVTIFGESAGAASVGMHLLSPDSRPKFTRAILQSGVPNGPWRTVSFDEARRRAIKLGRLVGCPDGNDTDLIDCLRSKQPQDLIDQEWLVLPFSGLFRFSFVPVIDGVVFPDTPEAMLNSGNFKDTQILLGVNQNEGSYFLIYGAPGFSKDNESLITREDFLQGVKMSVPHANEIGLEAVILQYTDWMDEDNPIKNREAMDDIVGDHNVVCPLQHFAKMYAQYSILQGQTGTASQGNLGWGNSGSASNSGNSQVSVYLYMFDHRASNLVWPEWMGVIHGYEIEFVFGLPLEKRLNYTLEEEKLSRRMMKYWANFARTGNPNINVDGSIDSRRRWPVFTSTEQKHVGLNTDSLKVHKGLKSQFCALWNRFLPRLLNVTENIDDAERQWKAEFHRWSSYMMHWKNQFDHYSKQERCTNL

CNC(=O)Oc1cccc2c1OC(C)(C)C2 [Carbofuran]
IC50: 84.3 nM
